Converted amounts (≈) assume the structure as drawn.
Experiments:
Assay type in all cases: physicochemical
[1] = DMSO solubility (stock solution preparation)
Protocol: (§1) Kinetic aqueous solubility assay. All compounds were dissolved in DMSO to make stock solutions at 10 mM concentration. […] 5 μL of the stock solutions was pipetted into a 96-well plate containing 495 μL PBS (pH 6.5) in each well to achieve 100 μM target concentration (1% DMSO). […] The plate was then sealed and shaken for 2 hours at room temperature. Each compound was investigated in 3 replicates. After 2 hours, the samples were filtered on a MultriscreenHTS filter plate (MSSLBPC, polycarbonate membrane, Merck KGaA, Darmstadt, Germany) by a Millipore Vacuum Manifold (Merck KGaA, Darmstadt, Germany). Before analyzing, 20 vol % acetonitrile was added to each well to avoid sample precipitation during HPLC analysis.

[2] = Kinetic aqueous solubility assay; parameters: key to Kinetic solubility (no value): –: Compounds with no value were under the detection limit; details: room temperature; for Kinetic solubility (no value): PBS pH 6.5, 2 hours, dash = under the detection limit; for solubility kinetic at 2 h: PBS buffer, pH 6.5, aqueous buffer, kinetic from dmso stock, PBS pH 6.5, 100 µM target concentration (1% DMSO), mean of 3 replicates, read-out: Kinetic solubility
Protocol: as §1
Analytical methods. […] For a 7-minute long gradient program, eluents A (0.1% formic acid in water) and B (0.1% formic acid in acetonitrile) were used as follows: initial conditions with 30% B were kept for 1 minute, then 90% B was achieved within 3 minutes, kept for further 1 minute, finally the initial condition was adjusted and equilibrated for further 2 minutes. 5-Point calibration series were measured from each compound resulting in R^2 ≈ 0.9990–0.9999.

[3] = Determination of the capacity factor (logk) by RP-HPLC; details: reversed-phase chromatographic capacity factor, eluent pH 7.0
Protocol: Determination of the capacity factor. […] The same analytical method was used with modified eluents: eluent A was 20 mM triethylamine with phosphoric acid (pH 7.0), and eluent B was acetonitrile without additives. The method time was slightly extended, with a 1-minute longer gradient, resulting in an 8-minute program. The capacity factor was calculated with Equation 3: […]
where k is the capacity factor, tR is the retention time (min) of the compounds and t0 is the dead-time of the column (min).

highest concentration achieved in DMSO [1] [mM] | Kinetic solubility (no value) [2] | logk (−) pH 7.0 [3] | solubility kinetic at 2 h [2] [µM] | SMILES
1 | – | 0.653 |  | CC1=NN(C)S(=O)(=O)c2c(N/N=C3\CCCc4ccccc43)cccc21 [(E)-9a]
0.5 | – | 0.695 |  | CN1N=C(c2ccccc2)c2cccc(N/N=C3\CCCc4ccccc43)c2S1(=O)=O [(E)-9b]
0.5 |  | 0.661 | 2.2 ± 0.1 (≈ 0.811 µg/mL) | CN1N=C(c2ccccc2)c2cccc(NN=C3CCCC3)c2S1(=O)=O [Compound 7i]
0.5 |  | 0.660 | 2.8 ± 0.2 (≈ 1.07 µg/mL) | CN1N=C(c2ccccc2)c2cccc(NN=C3CCCCC3)c2S1(=O)=O [Compound 7j]
